Results reported in US11612681B2, “Compositions and devices for removal of endotoxins and cytokines from fluids” (priority 2017, dated 2023).

Tests used:
[1] = format: binding, E. coli; conditions: 40:1 mass ratio of PMB/LPS
Description: (§1) Electrophoresis Assays. The binding capacities of the telodendrimers with LPS and/or BSA were studied and compared with PMB binding using electrophoresis assay. The electrophoresis was carried out in 1.5% agarose gel (tris-borate-EDTA (TBE) buffer) at constant current of 20 mA for 2 h. The gel was imaged by a Bio-Rad Universal Hood II Imager (Bio-Rad Laboratories, Inc.) under SYBR Green modes or photographed under UV illumination.
as §1, with “assays.” for “Assays.”, “bovine serum albumin (BSA)” for “BSA”, “(Tris-borate-EDTA” for “(tris-borate-EDTA”

[2] = Fluorescent polarization assay of FITC-LPS complexation; format: binding; conditions: FITC-LPS 10 μg/mL in PBS
Description: Fluorescent polarization assays. The fluorescence polarization (FP) was measured on the Multi-Mode Microplate Reader (Synergy™ 2, Biotek, VT) equipped with dichroic mirror (510 nm) and polarizing filter. The measurements were carried out on black flat bottom 96-well plates (Nunclon™ Surface, Roskilde, Denmark). The FP of LPS-FITC was record at excitation and emission filter of 485/20 nm and 528/20 nm, respectively. The experiments were performed in triplicate.

## Polymyxin B [PMB]
[1]
  stability of LPS complex in electrophoresis: unstable and dissociated
[2]
  fluorescent polarization of FITC-LPS: only slightly increased
